Source: patent US20190359560A1, “ANTI-INFLAMMATORY DRUG AND USES THEREOF” (KYUSHU UNIVERSITY, NATIONAL UNIVERSITY CORPORATION, priority 2015, published 2019)

Legend:
[1] = biological target: T1, Hsd17b4 (Peroxisomal multifunctional enzyme type 2) (Mus musculus, UniProt P51660); experiment: Pull-down assay with avidin beads and LC/MS/MS identification of target protein; assay type: binding; details: proteins from mouse hepatocytes, avidin beads
T1 construct: Mouse hepatocytes were homogenized to extract proteins from the cytoplasm and nucleus; endogenous in cells; host or cells: mouse hepatocytes (homogenate, cytoplasmic and nuclear proteins)
T1 sequence (P51660 1-735): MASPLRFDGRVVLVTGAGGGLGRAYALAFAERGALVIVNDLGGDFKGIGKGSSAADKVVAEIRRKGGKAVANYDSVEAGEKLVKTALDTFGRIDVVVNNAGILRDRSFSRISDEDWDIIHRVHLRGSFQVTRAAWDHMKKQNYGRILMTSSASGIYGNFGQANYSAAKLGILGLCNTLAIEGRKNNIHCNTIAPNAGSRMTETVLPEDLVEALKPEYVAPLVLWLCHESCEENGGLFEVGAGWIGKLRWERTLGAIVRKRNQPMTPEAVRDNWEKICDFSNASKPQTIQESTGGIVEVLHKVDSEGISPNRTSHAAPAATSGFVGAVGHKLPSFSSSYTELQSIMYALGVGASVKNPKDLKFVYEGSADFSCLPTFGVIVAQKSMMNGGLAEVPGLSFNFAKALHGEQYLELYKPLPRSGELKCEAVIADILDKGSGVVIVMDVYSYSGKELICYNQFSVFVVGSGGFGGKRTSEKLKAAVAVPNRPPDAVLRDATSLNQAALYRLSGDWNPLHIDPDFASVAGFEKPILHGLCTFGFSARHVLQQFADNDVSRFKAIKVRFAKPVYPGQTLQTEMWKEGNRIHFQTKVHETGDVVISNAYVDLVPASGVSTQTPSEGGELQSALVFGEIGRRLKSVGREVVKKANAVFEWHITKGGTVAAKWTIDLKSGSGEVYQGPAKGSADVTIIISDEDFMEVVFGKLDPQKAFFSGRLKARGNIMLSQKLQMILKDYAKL
Procedure: (§1) Mouse hepatocytes were homogenized to extract proteins from the cytoplasm and nucleus. […] The chemical formulae of Compounds #142 and #151 are shown in General Formulae (13) and (14), respectively.
Thereafter, a pull-down assay was carried out with avidin-labeled magnetic beads (hereinafter, sometimes referred to as “avidin beads”), and the compounds and proteins bound to the avidin beads were subjected to acrylamide gel electrophoresis. The acrylamide gel after subjecting to electrophoresis was negatively stained, a band of a protein specifically bound to Compound #142 was excised, and the protein was identified by an LC/MS/MS analysis.
FIG. 17 is a photograph showing the results of acrylamide gel electrophoresis.

G0S2 mRNA [2] = experiment: G0S2 mRNA expression in Hepa1-6 cells (qRT-PCR); assay type: cell-based, mouse; details: for expression level of G0S2 mRNA: 10 μM, 24 hours; for G0S2 mRNA expression level: 48 hours, vs DMSO
Procedure: The effect of the compound on the expression level of mRNA of the G0S2 gene was evaluated for the three compounds extracted so far. 24 hours after seeding with Hepa1-6 cells, the cells were exposed to hit compounds at 10 μM and sampling and total RNA extraction were carried out 24 hours later. Subsequently, changes in the expression level of mRNA of the G0S2 gene were measured by a qRT-PCR method.
Hepa1-6 cells were exposed to 10 μM of each of seven derivatives of Compound No. 2 (Examples 2 and 4 to 9) and an effect of the derivative compounds on the expression level of G0S2 mRNA after 24 hours was evaluated.
Therefore, Hepa1-6 cells were exposed to Compound No. 2 and the compound of Example 2 (NS-3-011) in the range of 0.5 to 5 μM and an effect of the compounds on the expression level of endogenous G0S2 mRNA after 48 hours was evaluated.
Subsequently, Hepa1-6 cells were transfected with siRNA against Hsd17b4 or control siRNA in the presence (10 μM) or absence (indicated as “DMSO” in FIG. 22B) of Compound No. 2. Subsequently, each cell was recovered after 48 hours and total RNA was extracted. Subsequently, the expression level of the G0S2 gene was quantified by real-time PCR.

[3] = test system: G0S2 promoter (−2030→+10); experiment: G0S2 promoter (−2030→+10) luciferase assay in Hepa1-6 cells; assay type: cell-based, mouse; details: Hepa1-6 reporter cells, 10 μM, 24 hours
Procedure: To get closer to the environment in the liver, a cell stably expressing an expression cassette in which a luciferase gene was ligated to the downstream side of the G0S2 promoter (−2030→+10) was constructed in the Hepa1-6 cell, which is a mouse hepatoma-derived cell. Using this cell, an effect of the candidate compounds on the luciferase activity was evaluated in the same manner as in the primary screening described above.

Bmal1 promoter = Bmal1 promoter luciferase assay in MEF cell line; assay type: cell-based; details: MEF reporter cell line, 10 μM, 24 hours
Procedure: Therefore, in order to exclude compounds having an effect on clock genes in normal cells, studies were conducted using the MEF cell line stably expressing an expression cassette in which a luciferase gene was ligated to the downstream side of the Bmal1 promoter.

[4] = test system: nuclear receptor RARα mRNA; experiment: RARα mRNA expression in Hepa1-6 cells (qRT-PCR); assay type: cell-based, mouse; details: 10 μM, 24 hours
[5] = test system: alanine aminotransferase (ALT) activity in serum; experiment: Serum ALT activity in DEN-induced hepatitis/hepatoma mouse model; assay type: in vivo; details: ICR mice, DEN 80 mg/L, 15 mg/kg in drinking water, 8 weeks and 12 weeks
Procedure: Diethylnitrosamine (DEN) dissolved in water at a concentration of 80 mg/L as drinking water was administered in drinking water to ICR mice, thereby inducing chronic inflammation in the liver. In addition, a group in which 15 mg/kg of the compound of Example 10 (NS-3-086) was administered in drinking water from immediately after the start of administration of DEN in drinking water was prepared. As a control group, a group given tap water as drinking water was used.
Subsequently, 8 weeks and 12 weeks after the start of administration of DEN in drinking water, blood was collected from the tails of mice of each group, and the alanine aminotransferase (ALT) activity in serum was measured using a commercially available kit (“Transaminase CII-Test Wako”, manufactured by Wako Pure Chemical Industries, Ltd.).

[6] = test system: DEN-induced hepatitis/hepatoma mouse model; experiment: DEN-induced hepatitis/hepatoma mouse model: hepatoma/tumor formation in liver after 14 weeks; assay type: in vivo; details: 15 mg/kg in drinking water
Procedure: Mice of a diethylnitrosamine (DEN)-induced hepatitis/hepatoma mouse model were divided into two groups, one receiving siRNA against G0S2 (G0S2 siRNA-administered group) and the other receiving negative control siRNA (control siRNA-administered group). Administration of siRNA to mice was carried out by tail vein administration of 1.6 nmol/mouse using a nucleic acid transfection reagent (trade name “LipoTrust™ EX Oligo <in vivo>, Hokkaido System Science Co., Ltd.). As the siRNA against G0S2, commercially available siRNA (Life Technologies, Inc., trade name “Stealth siRNA”, catalog number “#1320001”, the base sequence of the antisense strand is set forth in SEQ ID NO: 3) was used. As the control siRNA, a commercially available siRNA (Life Technologies, Inc., the base sequence of the antisense strand is set forth in SEQ ID NO: 4) was used.
Subsequently, mice of the same G0S2 siRNA-administered group and control siRNA-administered group as above were prepared. DEN was added to drinking water at a concentration of 80 mg/L from one day after the administration of siRNA to mice, and mice were sacrificed after 14 weeks of breeding and then subjected to analysis. As a result, the onset of hepatoma was inhibited in mice of the G0S2 siRNA-administered group.
Diethylnitrosamine (DEN) dissolved in water at a concentration of 80 mg/L as drinking water was administered in drinking water to ICR mice, thereby inducing chronic inflammation and hepatoma in the liver. In addition, a group in which 15 mg/kg of the compound of Example 10 (NS-3-086) was administered in drinking water from immediately after the start of administration of DEN in drinking water was prepared. As a control group, a group given tap water as drinking water was used.
Subsequently, mice of each group were sacrificed 14 weeks after the start of administration of DEN in drinking water, and the liver was excised and analyzed. FIGS. 28A, 28B and 28C are photographs of the liver at 14 weeks after the start of administration of DEN in drinking water.

Hsd17b4 gene = experiment: Hsd17b4 knockdown in Hepa1-6 cells: Hsd17b4 gene expression (real-time PCR); assay type: cell-based, mouse; details: 48 hours after transfection, vs control siRNA
Description: Hepα1-6 cells, which are mouse hepatoma-derived cells, were divided into two groups, in which one group was transfected with siRNA against Hsd17b4 and the other group was transfected with control siRNA. The base sequence of the sense strand of siRNA against Hsd17b4 is set forth in SEQ ID NO: 7, and the base sequence of the antisense strand thereof is set forth in SEQ ID NO: 8. In addition, commercially available siRNA (Life Technologies, Inc., the base sequence of the antisense strand is set forth in SEQ ID NO: 4) was used as the control siRNA.
Subsequently, each cell was recovered after 48 hours and total RNA was extracted. Subsequently, the expression level of the Hsd17b4 gene was quantified by real-time PCR.

G0S2 = experiment: Inhibition of the expression of G0S2 (stated, test not specified); assay type: cell-based
Description: as §1

G0S2 promoter = G0S2 promoter luciferase activity in O-4000E cell line, IC50; assay type: cell-based, mouse; details: Mus musculus, 24 h, O-4000E cells, 24 hours after exposure
Procedure: The present inventors have searched for a G0S2 gene transcription inhibitor. In searching, the present inventors have received a compound library consisting of 9600 compounds (Core library) from the Open Innovation Center for Drug Discovery, The University of Tokyo. For this compound library, primary screening was carried out by evaluating an effect of compounds on a luciferase activity using a 384-well plate. The drug efficacy evaluation was studied three times for each compound (final concentration of 10 μM) using a cell line stably expressing an expression cassette in which a luciferase gene was ligated to the downstream side of the G0S2 promoter (−2030→−1378), and compounds which reduced a luciferase activity to less than ¼ were extracted from all studies. As a result, 175 compounds were hit.
For the evaluation of drug efficacy of Compound Nos. 1 and 2, which are hit compounds, an IC50 was calculated. The O-4000E cell line was seeded, and Compound Nos. 1 and 2 were serially diluted in […] so as to have final concentrations of 0.15625 μM to 10 μM, followed by exposure of the cells to the compounds. The luciferase activity was measured 24 hours after the exposure, and the curve fitting was carried out to calculate an IC50 of the compounds.
Detailed drug efficacy evaluation at low concentrations was carried out for the compound of Example 2 (NS-3-011) whose drug efficacy at a concentration of less than 10 μM was observed based on the studies so far and which is expected to have an effect equal to or more than that of Compound No. 2. First, using O-4000E cells, IC50 of Compound No. 2 and the compound of Example 2 (NS-3-011) on the G0S2 promoter activity was calculated.

G0S2 mRNA [7] = experiment: G0S2 mRNA expression in human HepG2 cells; assay type: cell-based; details: 10 μM, 24 hours
[8] = ICR mice, DEN 80 mg/L, 14 weeks
[9] = liver, 14 weeks after start of DEN in drinking water

## CCCCCCCCCCCCNC(=N)NCc1ccc(OCc2cn(CCOCCOCCOCCNC(=O)CCCC[C@@H]3SC[C@@H]4NC(=O)N[C@@H]43)nn2)cc1 [#142]
[1]
  protein specifically bound in pull-down assay (band of about 75 kDa): Hsd17b4

## CCCCCCN/C(=N\C(=O)OC(C)(C)C)NCc1ccccc1 [Example 4]
G0S2 mRNA [2]
  expression level of G0S2 mRNA: up to the same extent as that of Compound 2

## O=C(Nc1cccc(S(=O)(=O)c2cccc(NC(=O)C3CC3)c2)c1)C1CC1 [Compound No. 3]
[3]
  G0S2 promoter (−2030→+10) activity (relative value): less than ½
Bmal1 promoter
  Bmal1 promoter activity: no significant change
[4]
  expression level of nuclear receptor RARα mRNA: significant decrease

## CCCCCCCCCCCCNC(=N)NCc1cc(C(F)(F)F)cc(C(F)(F)F)c1 [Example 10]
[5]
  increase in serum ALT activity by DEN drinking water: inhibited
[6]; [8]
  hepatic hardening: inhibited
  tumor formation in the liver: inhibited
[6]; [9]
  mice (n) with large number of tumors: 0 n
  mice (n) with number of tumors 0: 3 n
  mice (n) with number of tumors 1: 3 n

## siRNA against Hsd17b4: siRNA against Hsd17b4, sense strand SEQ ID NO: 7, antisense strand SEQ ID NO: 8 (sense GAGCAUUAGUCAUUGUGAACGACUU; antisense AAGUCGUUCACAAUGACUAAUGCUC; listed as RNA, chemistry not given here)
Hsd17b4 gene
  expression of Hsd17b4: inhibited

## N=C(NCCCCCO)NCc1ccccc1 [Comparative Example 1]
G0S2
  inhibition of the expression of G0S2: not inhibiting the expression of G0S2

## CC(=O)Nc1cccc(NC(=O)CSc2nc(=O)n(N3CCN(C)CC3)c3c2CCC3)c1 [Compound No. 1]
[3]
  G0S2 promoter (−2030→+10) activity (relative value): less than ½
Bmal1 promoter
  Bmal1 promoter activity: no significant change
G0S2 promoter
  IC50: 5 µM
[4]
  expression level of nuclear receptor RARα mRNA: no change

## CCCCCCNC(=N)NCCc1ccccc1 [Example 6]
G0S2 mRNA [7]
  expression level of G0S2 mRNA: significant decrease
G0S2 mRNA [2]; 2.5 μM
  G0S2 mRNA expression level: significant decrease
G0S2 mRNA [2]; 5 μM
  G0S2 mRNA expression level: significant decrease
G0S2 mRNA [2]
  expression level of G0S2 mRNA: up to the same extent as that of Compound 2
